Measurements taken from ChEMBL document CHEMBL1153718, “1,2,4-Triazolyl azabicyclo[3.1.0]hexanes: a new series of potent and selective dopamine D(3) receptor antagonists” (J Med Chem, 2010).

Experiments:
[1] = Clearance in po dosed rat blood; format: ADME, organism-based
[2] = Half life in po dosed rat; format: ADME, organism-based; details: in vivo
Rattus norvegicus = assay: Volume of distribution at steady state in po dosed rat; format: ADME, organism-based; details: in vivo
[3] = Oral bioavailability in rat; format: ADME, organism-based; details: in vivo
[4] = Cmax in Hartley guinea pig at 0.5 to 15 mg/kg, iv; format: ADME, organism-based, Cavia porcellus; parameters: dose 0.5-15 mg/kg, route intravenous; details: in vivo

SMILES: Cc1ncccc1-c1nnc(SCCCN2C[C@@H]3C[C@]3(c3ccc(C(F)(F)F)cc3)C2)n1C
- CL/F [1]: 18 mL/min/kg
- half-life [2]: 2.1 h
- Vdss (Rattus norvegicus): 2.5 L/kg
- bioavailability [3]: 50%
- Cmax [4]: 6240 ng/mL

SMILES: Cc1nc(C)c(-c2nnc(SCCCN3C[C@@H]4C[C@]4(c4ccc(C(F)(F)F)cc4)C3)n2C)s1
- CL/F [1]: 26 mL/min/kg
- half-life [2]: 2 h
- Vdss (Rattus norvegicus): 3.9 L/kg
- bioavailability [3]: 23%
- Cmax [4]: 8320 ng/mL

SMILES: Cn1c(SCCCN2C[C@@H]3C[C@]3(c3ccc(C(F)(F)F)cc3)C2)nnc1-c1ccnnc1
- CL/F [1]: 13 mL/min/kg
- half-life [2]: 2.1 h
- Vdss (Rattus norvegicus): 2.2 L/kg
- bioavailability [3]: 46%
- Cmax [4]: 9580 ng/mL

SMILES: Cc1ncoc1-c1nnc(SCCCN2CC3CC3(c3ccc(C(F)(F)F)cc3)C2)n1C (racemic)
- CL/F [1]: 14 mL/min/kg
- half-life [2]: 3.2 h
- Vdss (Rattus norvegicus): 3.5 L/kg
- bioavailability [3]: 85%

SMILES: Cc1ncoc1-c1nnc(SCCCN2CC3CC3(c3ccc(Cl)cc3)C2)n1C (single isomer, unassigned; 51)
- CL/F [1]: 40 mL/min/kg
- half-life [2]: 1.3 h
- Vdss (Rattus norvegicus): 2.6 L/kg
- bioavailability [3]: 31%

SMILES: Cc1ncoc1-c1nnc(SCCCN2CC3CC3(c3ccc(C(F)(F)F)cc3F)C2)n1C (single isomer, unassigned; 74)
- CL/F [1]: 18 mL/min/kg
- half-life [2]: 3.7 h
- Vdss (Rattus norvegicus): 4.3 L/kg
- bioavailability [3]: 47%
- Cmax [4]: 8640 ng/mL
